According to patent US20240228480A1, “PROCESSES FOR PREPARING PYRROLOPYRIDINE-ANILINE COMPOUNDS” (NFLECTION THERAPEUTICS, INC., priority 2021, published 2024):
Entries after “also recorded” stand apart in the source; their conditions may differ.

Columns and labels:
[1] = Stability of Compound (II) suspended in various solvents (slurry experiment, HPLC area %); assay type: physicochemical
Source text: Therefore, the first course of action was to find a suitable solvent in which to suspend compound (II) for the addition to the first mixture of step 6a).

[2] = clinical trials; cited from earlier work

Cn1c(Nc2ccc(I)cc2F)c(C(=O)Cl)c2cccnc21 [Compound (II)]
Area % t = 10 min ([1]; solvent 2-Me-THF): 88.0 Area % | Area % t = 2 h ([1]; solvent 2-Me-THF): 77.8 Area % | Area % t = 17 h ([1]; solvent 2-Me-THF): 75.3 Area % | Area % t = 10 min ([1]; solvent DCM): 91.4 Area % | Area % t = 2 h ([1]; solvent DCM): 90.5 Area % | Area % t = 17 h ([1]; solvent DCM): 85.3 Area % | Area % t = 10 min ([1]; solvent Heptane): *68.6 Area % | Area % t = 2 h ([1]; solvent Heptane): 88.4 Area % | Area % t = 17 h ([1]; solvent Heptane): 91.8 Area % | Area % t = 10 min ([1]; solvent IPAc): *81.6 Area % | Area % t = 2 h ([1]; solvent IPAc): 93.3 Area % | Area % t = 17 h ([1]; solvent IPAc): 90.4 Area % | Area % t = 10 min ([1]; solvent MTBE): 92.9 Area % | Area % t = 2 h ([1]; solvent MTBE): *81.6 Area % | Area % t = 17 h ([1]; solvent MTBE): 87.2 Area % | Area % t = 10 min ([1]; solvent MeCN): 87.4 Area % | Area % t = 2 h ([1]; solvent MeCN): 79.2 Area % | Area % t = 17 h ([1]; solvent MeCN): 65.5 Area % | Area % t = 10 min ([1]; solvent THF): 90.0 Area % | Area % t = 2 h ([1]; solvent THF): 83.7 Area % | Area % t = 17 h ([1]; solvent THF): 63.7 Area % | Decomposition when suspended in THF ([1]; suspended in THF for a period of time (e.g., >10 h)): Decomposition of compound (II) was found to occur

O=C(NOC[C@H](O)CO)c1ccc(F)c(F)c1Nc1ccc(I)cc1F [PD0325901]
Side effects exhibited [2]: neurological side effects associated with ataxia, confusion, and syncope; also recorded: one or more neurological side effects associated with ataxia, confusion, and syncope
